Key:
A2780 [1] = assay: Compound was evaluated for cytotoxicity against A2780 cell lines.; type: functional, cell-based; conditions: Homo sapiens
A2780 [2] = assay: Compound was evaluated for cytotoxicity against A2780 cis cell lines.; type: functional, cell-based; conditions: Homo sapiens
[3] = Compound was evaluated for induced thermal stabilization for compound: DNA ratio of 1:10 at 0.1 to 0.2 degrees Centigrade.; set-up: unit: °C
[4] = Compound was evaluated for induced thermal stabilization for compound: DNA ratio of 1:5 at 0.1 to 0.2 degrees Centigrade.; set-up: unit: °C
SK-OV-3 = assay: Compound was evaluated for cytotoxicity against SCOV-3 cell lines.; type: functional, cell-based; conditions: Homo sapiens
MAC15A = assay: Compound was evaluated for cytotoxicity against Mac15A cell lines.; type: functional, cell-based; conditions: Mus musculus
HOP-92 = assay: Compound was evaluated for cytotoxicity against HOP-92 cell lines.; type: functional, cell-based; conditions: Homo sapiens
MCF7 = assay: Compound was evaluated for cytotoxicity against MCF-7 cell lines.; type: functional, cell-based; conditions: Homo sapiens
MOLT-4 = assay: Compound was evaluated for cytotoxicity against MOLT-4 cell lines.; type: functional, cell-based; conditions: Homo sapiens
SW-620 = assay: Compound was evaluated for cytotoxicity against SW-620 cell lines.; type: functional, cell-based; conditions: Homo sapiens
WEHI = assay: Compound was evaluated for cytotoxicity against WEHI cell lines.; type: functional, cell-based; conditions: Mus musculus

Compound	IC50 (A2780 [1])	IC50 (A2780 [2])	Change in Tm [3]	Change in Tm [4]	IC50 (SK-OV-3)	IC50 (MAC15A)	IC50 (HOP-92)	IC50 (MCF7)	IC50 (MOLT-4)	IC50 (SW-620)	IC50 (WEHI)
O=C(NCCN1CCCCC1)c1cn2c(ccc3sc4ccccc4c(=O)c32)n1	560 nM	650 nM	6	10.5	7700 nM	180 nM					
CN(C)CCCNC(=O)c1cn2c(ccc3sc4ccccc4c(=O)c32)n1	540 nM	760 nM	5.7	10.4	2150 nM	500 nM	360 nM	11200 nM	420 nM	1440 nM	300 nM
O=C(NCCN1CCCC1)c1cn2c(ccc3sc4ccccc4c(=O)c32)n1	4500 nM	6000 nM	3.4	6.5	29000 nM		15900 nM	610 nM	470 nM	1520 nM	
O=C(c1cn2c(ccc3sc4ccccc4c(=O)c32)n1)N1CCN(CCO)CC1	740 nM	1800 nM	1.9	3.5	13500 nM	420 nM					
O=C(NCCN1CCOCC1)c1cn2c(ccc3sc4ccccc4c(=O)c32)n1	5800 nM	7600 nM	1.6	2.9	23000 nM		12800 nM	7080 nM	3300 nM	4850 nM	
CCN(CC)CCCNC(=O)c1cn2c(ccc3sc4ccccc4c(=O)c32)n1	430 nM	480 nM	7	12.4	1650 nM						
CCOC(=O)c1cn2c(ccc3sc4ccccc4c(=O)c32)n1	> 100000 nM	> 100000 nM	0.5	1.2	> 100000 nM		87500 nM	84400 nM	> 100000 nM	> 100000 nM	> 100000 nM
O=C1c2c(O)ccc(O)c2C(=O)c2c(NCCNCCO)ccc(NCCNCCO)c21 [MITOXANTRONE]	5500 nM		15	> 25							
Nc1ccc2cc3ccc(N)cc3nc2c1 [PROFLAVINE]			6.3	11.5							
